Data taken from patent US9402908B2, “Polymeric delivery systems for active agents” (priority 2008, dated 2016).

Details: same protocol, no polymer

With `C[C@@H]1[C@H](O)[C@@H](C)/C=C/C=C/C=C/C=C/C=C/C=C/C=C/[C@H](O[C@@H]2O[C@H](C)[C@@H](O)[C@H](N)[C@@H]2O)C[C@@H]2O[C@](O)(C[C@@H](O)C[C@@H](O)[C@H](O)CC[C@@H](O)C[C@@H](O)CC(=O)O[C@H]1C)C[C@H](O)[C@H]2C(=O)O` [Amphotericin B] the “water solubility of Amphotericin B” value was “approx. 0.4 μg/mL”.
